Assay results as given in publication PMC6098585, “Characterization and structure-activity relationships of indenoisoquinoline-derived topoisomerase I inhibitors in unsilencing the dormant Ube3a gene associated with Angelman syndrome” (Molecular Autism, 2018).
Where two headings read alike, the source gives them in different places.

Tests used:
[1] = Cytotoxicity test (Cyto Tox-Glo) in cultured cortical neurons; conditions: mouse, primary cultured cortical neurons from E14.5 embryos
paternal UBE3A = experiment: Western blot of paternal UBE3A in cultured neurons from AS model mice (Ube3a^m−/p+); assay type: cell-based, mouse; conditions: 0.3 μM, 72 h, vs DMSO, n = 3/group
Protocol: (§1) We followed the same procedures of Western blot analysis as previously described. In brief, 72 h after drug treatment, we collected the cultured neurons from 6-well plates and extracted total protein with protein extraction buffer. Bradford assay was performed to measure protein concentration, and 30 μg of total protein was loaded for Bis-polyacrylamide gel electrophoresis (Bio-Rad). Electrophoresed proteins were transferred to nitrocellulose membrane (0.45 μm, Bio-Rad). The membranes were blocked with 5% non-fat milk in TBS-T at room temperature for 30 min followed by overnight 4 °C incubation with primary antibodies (rabbit anti-GFP, 1:1000, Novus Biologicals; rabbit anti-Ube3a, 1:1000, Bethyl Lab; mouse anti-actin; 1:5000, Sigma). The next day, the membranes were rinsed with TBS-T three times and incubated with HPR-conjugated secondary antibodies for 1 h at room temperature (goat anti-rabbit, 1:1000, Vector Lab or goat anti-mouse, 1:1000, Vector Lab). Following secondary antibody incubation, the membranes were rinsed with TBS-T at room temperature for 1 h (4–5 times) and ECL substrates (Bio-Rad) were used to visualize immunostaining using an Amersham Imager 600 (AI600, GE Life Sciences).

paternal Ube3a-YFP [2] = experiment: Paternal Ube3a-YFP unsilencing, fluorescence immunostaining and high-content imaging in primary cortical neurons (Ube3a^m+/pYFP); assay type: cell-based, mouse; conditions: for neurons expressing paternal Ube3a-YFP above threshold: 0.3 μM, n = 4 wells, YFP-positive cells / total Hoechst-positive cells
Protocol: We followed the protocols for fluorescent immunostaining and high-content imaging of cortical neurons as previously described. Briefly, 72 h after drug treatment, the cells were fixed with 4% paraformaldehyde at room temperature for 15 min. After rinsing with phosphate-buffered saline (PBS) three times, the cells were permeabilized with 1% Triton-X 100 in PBS, followed by blocking with 5% NGS and 0.1% Triton-X 100 in PBS at room temperature for 30 min. After blocking, the cells were incubated with primary antibody, rabbit anti-GFP (1:1000, Novus Biologicals), at 4 °C overnight. The cells were then briefly rinsed with PBS followed by incubation with secondary antibody, goat anti-rabbit Alexa Fluor 488 (1:200, Thermo Fisher/Invitrogen), at room temperature. One hour after secondary antibody incubation, the cells were rinsed with PBS and fluorescent images were acquired using a BD Pathway 855 bioimager. The acquired images were processed by CellProfiler to count the number of positive cells and measure fluorescent intensity (Additional file 2). To determine the percentage of neurons expressing paternal Ube3a-YFP, we counted the total number of cells (Hoechst) and YFP-positive cells, and the number of YFP-positive cells was divided by the total number of cells. Fluorescence intensity was measured in neurons expressing unsilenced paternal Ube3a-YFP and normalized to vehicle control.

paternal Ube3a-YFP [3] = experiment: Western blot of paternal UBE3A-YFP in cultured neurons from Ube3a^m+/pYFP mice; assay type: cell-based, mouse; conditions: 0.3 μM, 72 h, n = 3/group
Protocol: as §1

in vitro = conditions: mouse
[4] = design: method as in PMID 27169793; conditions: at the concentrations examined; cited from earlier work
Top1 = conditions: cited from earlier work
[5] = design: method as in earlier work; conditions: cited from earlier work
ABCG2 = tested on: ABCG2; design: method as in PMID 17974983; conditions: cited from earlier work
MDR1 = tested on: MDR1; design: method as in PMID 17974983; conditions: cited from earlier work
[6] = Mus musculus, Primary cortical neuron, unsilencing of paternal UBE3A-YFP, drug 72 h from DIV 7, n = 4/group, estimated from Fig. 4, read-out: EC50
[7] = maximum response of unsilencing paternal Ube3a-YFP, fluorescence intensity normalized to vehicle control, 72 h, estimated from Fig. 4
[8] = Table S1, nine analogues, unsilencing of paternal UBE3A-YFP, 72 h
[9] = Table S1, nine analogues, unsilencing of paternal UBE3A-YFP, 72 h, 'ambiguous' = limited effective dose range, read-out: EC50

Row | EC50 (paternal Ube3a-YFP [2]; [9]) | SMILES | CC50 at 72 h [1] | paternal UBE3A protein level (Western blot, normalized to actin) (paternal UBE3A) | neurons expressing paternal Ube3a-YFP above threshold (paternal Ube3a-YFP [2]; 72 h) | EC50 (paternal Ube3a-YFP [2]; [6]) | Emax (paternal Ube3a-YFP [2]; [7]) | paternal UBE3A-YFP protein level (Western blot, normalized to actin) (paternal Ube3a-YFP [3]) | Emax (paternal Ube3a-YFP [2]; [8]) | also measured
1 |  | COc1cc2c3c(n(C[C@@H](O)CO)c(=O)c2cc1OC)-c1cc2c(cc1C3=O)OCO2 [DB-IV-58] | 2010 nM | high level of paternal UBE3A protein | 17.7 ± 3.87% | 31 nM | 1.45 (± 0.12) | led to paternal UBE3A-YFP protein production |  | 
2 |  | CC[C@@]1(O)C(=O)OCc2c1cc1n(c2=O)Cc2cc3c(CN(C)C)c(O)ccc3nc2-1 [Topotecan] |  | high level of paternal UBE3A protein | 33.0 ± 2.56% | 30.4 nM | 1.51 (± 0.11) | led to paternal UBE3A-YFP protein production |  | CC50 at 72 h (in vitro): 2300 nM
3 | 121 nM | COc1cc2c3c(n(C[C@H](O)CO)c(=O)c2cc1OC)-c1cc2c(cc1C3=O)OCO2 [DB-IV-50] |  |  |  |  |  |  | 1.39 (±0.07) | 
4 |  | O=C1c2ccccc2-c2c1c1ccc([N+](=O)[O-])cc1c(=O)n2CC(O)C(O)C(O)CO (centres unmarked) [DB-V-37] | 2020 nM | high level of paternal UBE3A protein | 14.1 ± 3.55% | 29.9 nM | 1.48 (± 0.08) | led to paternal UBE3A-YFP protein production |  | 
5 | ~26.8 nM | C=CCn1c2c(c3cc(OC)c(OC)cc3c1=O)C(=O)c1cc3c(cc1-2)OCO3 [MJ-II-66A] |  |  |  |  |  |  | 1.20 (±0.05) | range of doses that produce Ube3a-YFP unsilencing before toxicities (paternal Ube3a-YFP [2]; dose-response 1E-10 to 3E-5 M, 72 h): very limited range of doses
6 |  | COc1cc2c3c(n(CCCN4CCOCC4)c(=O)c2cc1OC)-c1cc2c(cc1C3=O)OCO2 [Indotecan, indotecan] |  | high level of paternal UBE3A protein | 37.1 ± 5.19% | 25.6 nM | 1.78 (± 0.13) | led to paternal UBE3A-YFP protein production |  | CC50 at 72 h (in vitro): 2010 nM; tolerability in a clinical population [4]: well tolerated; inhibition of Top1 enzymatic activity (Top1): ~100%; CNS penetration [5]: favorable CNS penetration; substrate for transporter ABCG2 (ABCG2): not a substrate; EC50 (paternal Ube3a-YFP [2]; Mus musculus, Primary cortical neuron, read-out: EC50 to produce Ube3a unsilencing): ~26 nM; substrate for transporter MDR1 (MDR1): not a substrate
7 | 634 nM | COc1cc2c3c(n(CCCO)c(=O)c2cc1OC)-c1cc2c(cc1C3=O)OCO2 [MNR-IV-64] |  |  |  |  |  |  | 1.37 (±0.09) | 
8 |  | COc1cc2c3c(n(CCCn4ccnc4)c(=O)c2cc1OC)-c1cc2c(cc1C3=O)OCO2 [Indimitecan, indimitecan] | 789 nM | high level of paternal UBE3A protein | 23.9 ± 1.72% | 7.47 nM | 1.47 (± 0.10) | led to paternal UBE3A-YFP protein production |  | inhibition of Top1 enzymatic activity (Top1): ~100%
